Data from US9034403B2, “Yeast extract containing γ-Glu-X or γ-Glu-X-Gly and a method for producing the same” (AJINOMOTO CO., INC., priority 2010, dated 2015).

Legend:
[1] = tested on: Saccharomyces cerevisiae S288C strain; experiment: Addition of peptide to medium of S288C strain; peptide content in dry cells and in extract by LC-MS/MS; type: cell-based
Method: Absorbance of the obtained culture broth was measured, the culture broth was inoculated into SD medium (400 ml in a 2 L-volume conical flask with baffle fins, a pluratity of flasks) so that OD660 was 0.01 at the start of the culture (absorbance was measured by using DU640 SPECTROPHTOMETER, BECKMAN COULTER), and culture was performed at 30° C. for 19 hours with shaking by rotation at a velocity of 120 rpm. From the obtained culture broth, 400 OD units of the cells (1 OD unit is defined as cells contained in 1 ml of culture broth of which OD660 is 1) were collected by centrifugal separation. The supernatant was removed as much as possible, and the residual cells were suspended in 45 ml of Milli-Q water. The cells were collected again by centrifugal separation, and resuspended in 45 ml of Milli-Q water. By repeating this operation 3 times in total, the medium was completely removed from the cells. The washed cells were suspended in about 1.5 ml of Milli-Q water, and the suspension was heated at 70° C. for 10 minutes. By this step, the extractable components contained in the cells were extracted. Then, the extract and the cell residue were separated by centrifugation.
Cell debris were removed from the extract using a centrifugal filtration membrane of 10 kDa (Amicon Ultra—0.5 mL 10K, MILLIPORE, Catalogue Number UFC501096)), the obtained fraction was derivatized with the AQC reagent in the same manner as that used in Example 1, and γ-Glu-Val-Gly and γ-Glu-Val were measured by LC-MS/MS. Separately, the amount of GSH in the cells was measured in a conventional manner (GSH in the extract was derivatized by using a fluorescence reagent ABD-F that binds to thiol group, separated and quantified by HPLC). Furthermore, dry cell weight was measured after the washed cells were dried at 104° C. for 4 hours. From the amounts of γ-Glu-Val-Gly and γ-Glu-Val in the extract prepared from the cells that was contained in a certain volume of culture broth and dry cell weight measured as described above, the amount of these peptides based on weight of dried cells was calculated. […]
One loop of the S288C strain was inoculated into SD medium (50 ml in a 500 ml-volume Sakaguchi flask), and cultured at 30° C. for 24 hours with shaking at a velocity of 120 rpm. Absorbance of the obtained culture broth was measured, the culture broth was inoculated into SD medium (400 ml in a 2 L-volume conical flask with baffle fins, two or more flasks) so that OD660 was 0.01 at the start of the culture, and culture was performed at 30° C. for 19 hours with shaking by rotation at a velocity of 120 rpm. After 19 hours, γ-Glu-Val-Gly aqueous solutions of various concentrations were added to obtain predetermined concentrations, and the culture was continued for 1 hour. Using these culture broths, the γ-Glu-Val-Gly content in dry cells was calculated in the same manner as in Example 2. Furthermore, the solid content of the extract was calculated, and the amount of γ-Glu-Val-Gly in the solid content was also calculated. […]
The cells were collected from the total culture broth, and washed in the same manner as that of Example 2. The washed cells in an amount of 400 OD units were suspended in 1.5 ml of Milli-Q water. This suspension was maintained at 70° C. for 10 minutes to produce an extract from the yeast cells. Furthermore, the suspension was centrifuged to remove the cell residues and thereby collect only the extract. The γ-Glu-Val-Gly concentration of this extract (extract of addition experiment) was measured to be about 300 ppm, and solid content was about 1%. The γ-Glu-Val-Gly concentration in an extract prepared in the same way but without adding γ-Glu-Val-Gly to the culture broth (extract of no addition experiment) was below the quantitation limit, and solid content was about 1%.
One loop of the S288C strain was inoculated into SD medium (50 ml in a 500 ml-volume Sakaguchi flask), and cultured at 30° C. for 24 hours with shaking at a velocity of 120 rpm. […]

[2] = tested on: S288C and HGT1 or PTR2 modified strains (Hgt1p, Ptr2p); experiment: Evaluation of γ-Glu-Val-Gly uptake activity of HGT1 or PTR2 modified strains; type: cell-based, Saccharomyces cerevisiae; conditions: 100 ppm γ-Glu-Val-Gly in SD medium, 7 hours
Method: The influence of Hgt1p, which has been considered to be a GSH specific transporter, and Ptr2p, which is a peptide transporter, on γ-Glu-Val-Gly accumulation was evaluated as follows.
Each strain was cultivated in 50-ml tubes containing 5 ml of SD medium with 100 ppm γ-Glu-Val-Gly as a final concentration. Tubes were inoculated by overnight culture of the corresponding strain at initial OD600=0.5, and placed in a rotation shaker at 240 rpm, 30° C. The cultivation time was 7 hours. Then, cells from 2 ml of broth culture were harvested by centrifugation, and were washed with 1 ml of milliQ water three times. Then, washed cells were suspended in 1 ml of milliQ and were incubated at 70° C. for 10 min with a water bath to extract intracellular materials. After cell debris and the extract were separated by centrifugation, the aqueous phase was transferred to a clean vial and the vial was then vacuum-dried. Thus, a dried extract was prepared. Then, the amount of γ-Glu-Val-Gly in the dried extract was measured with LC-MS/MS analysis. The detailed procedures are described below.
1. Sample was dissolved in 100 μl of water, and then 100 μl of acetonitrile (MeCN) was added, and then centrifuged.
2. 190 μl of supernatant was transferred to a new tube and dried.
3. Pellet was dissolved in 40 μl of water.
4. For derivatization, 20 μl of the obtained solution was mixed with 60 μl of buffer and 80 μl of derivatization reagent, and incubated at 55° C. for 10 min.
5. After incubation, 200 μl of 0.1% solution of HCOOH in water was added to stop AQC derivatization reaction.
40 μl of the resultingsolution was taken for HPLC, and γ-Glu-Val-Gly in the elutants was analyzed with MS/MS detector.
It was shown that the HGT1 gene is essential to transport γ-Glu-Val-Gly from the medium, but PTR2 is not.

[3] = 0.01 ppm γ-Glu-Val-Gly added to medium after 19 hours, culture continued 1 hour
[4] = 0.1 ppm γ-Glu-Val-Gly added to medium after 19 hours, culture continued 1 hour
[5] = 1 ppm γ-Glu-Val-Gly added to medium after 19 hours, culture continued 1 hour
[6] = 5 ppm γ-Glu-Val-Gly added to medium after 19 hours, culture continued 1 hour
[7] = 10 ppm γ-Glu-Val-Gly added to medium after 19 hours, culture continued 1 hour
[8] = 100 ppm γ-Glu-Val-Gly added to medium after 19 hours, culture continued 1 hour

## CC(C)[C@H](NC(=O)CC[C@H](N)C(=O)O)C(=O)NCC(=O)O [γ-Glu-Val-Gly]
[1]; [3]
  γ-Glu-Val-Gly content in dry cells: 5 ppm
  γ-Glu-Val-Gly content in solid content of extract: 21 ppm
[1]; [4]
  γ-Glu-Val-Gly content in dry cells: 28 ppm
  γ-Glu-Val-Gly content in solid content of extract: 96 ppm
[1]; [5]
  γ-Glu-Val-Gly content in dry cells: 363 ppm
  γ-Glu-Val-Gly content in solid content of extract: 1110 ppm
[1]; [6]
  γ-Glu-Val-Gly content in dry cells: 2647 ppm
  γ-Glu-Val-Gly content in solid content of extract: 10119 ppm
[1]; [7]
  γ-Glu-Val-Gly content in dry cells: 5341 ppm
  γ-Glu-Val-Gly content in solid content of extract: 17408 ppm
[1]; 50 ppm γ-Glu-Val-Gly added after 19 hours, culture continued 1 hour, 400 OD units in 1.5 ml, solid content about 1%
  γ-Glu-Val-Gly concentration of extract: about 300 ppm
[1]; [8]
  γ-Glu-Val-Gly content in dry cells: 10191 ppm
  γ-Glu-Val-Gly content in solid content of extract: 32183 ppm
[1]; γ-Glu-Val-Gly 100 ppm added to SD medium in advance, culture 16 hours
  γ-Glu-Val-Gly content in dry cells: about 20,000 ppm
[2]; Table 13, strain S288C hgt1Δ ptr2Δ
  intracellular γ-Glu-Val-Gly: 0.01 mg 1^−1 OD600^−1
[2]; Table 13, strain S288C hgt1Δ
  intracellular γ-Glu-Val-Gly: 0.01 mg 1^−1 OD600^−1
[2]; Table 13, strain S288C ptr2Δ
  intracellular γ-Glu-Val-Gly: 1.84 mg 1^−1 OD600^−1
[2]; Table 13, strain S288C
  intracellular γ-Glu-Val-Gly: 1.93 mg 1^−1 OD600^−1
[2]; Table 14, strain S288C PADH1-HGT1
  intracellular γ-Glu-Val-Gly: 28.6 mg 1^−1 OD600^−1
[2]; Table 14, strain S288C PADH1-PTR2
  intracellular γ-Glu-Val-Gly: 2.6 mg 1^−1 OD600^−1
[2]; Table 14, strain S288C
  intracellular γ-Glu-Val-Gly: 3.3 mg 1^−1 OD600^−1
